| melting point | SMILES |
| --- | --- |
| 48 to 50 °C | Cc1nc(N2CCCN(Cc3ccc(F)cc3)C2=O)sc1C(=O)NCc1cccnc1 [Example 32.25, 2-(3-(4-fluorobenzyl)-2-oxotetrahydropyrimidin-1(2H)-yl)-4-methyl-N-(pyridin-3-ylmethyl)thiazole-5-carboxamide] |
| 148 to 151 °C | Cc1nc(N2CCN(CC3CC3)C2=O)sc1C(=O)NCc1ccccn1 [Example 32.24, 2-(3-(cyclopropylmethyl)-2-oxoimidazolidin-1-yl)-4-methyl-N-(pyridin-2-ylmethyl)thiazole-5-carboxamide] |
| 185 to 187 °C | Cc1nc(N2CCN(Cc3ccc(F)cc3)C2=O)sc1C(=O)NCc1cnccn1 [Example 32.17, 2-(3-(4-fluorobenzyl)-2-oxoimidazolidin-1-yl)-4-methyl-N-(pyrazin-2-ylmethyl)thiazole-5-carboxamide] |
| 162 to 164 °C | Cc1nc(N2CCN(Cc3ccc(F)cc3)C2=O)sc1C(=O)N(C)C [Example 32.22, 2-(3-(4-fluorobenzyl)-2-oxoimidazolidin-1-yl)-N,N,4-trimethylthiazole-5-carboxamide] |
| 206 to 207 °C | Cc1csc(N2CCN(Cc3ccc(C(=O)Nc4ccc(F)cc4)cc3)C2=O)n1 [Example 8.7, N-(4-fluorophenyl)-4-((3-(4-methylthiazol-2-yl)-2-oxoimidazolidin-1-yl)methyl)benzamide] |
| 177 to 178 °C | Cc1nc(N2CCN(Cc3ccc(F)cc3)C2=O)sc1C(=O)NCc1ccc(F)cc1 [Example 9.20, N-(4-fluorobenzyl)-2-(3-(4-fluorobenzyl)-2-oxoimidazolidin-1-yl)-4-methylthiazole-5-carboxamide] |
| 205 to 207 °C | Cc1nc(N2CCN(Cc3ccc(F)cc3)C2=O)sc1C(=O)NCc1ncccn1 [Example 32.16, 2-(3-(4-fluorobenzyl)-2-oxoimidazolidin-1-yl)-4-methyl-N-(pyrimidin-2-ylmethyl)thiazole-5-carboxamide] |
| 208 to 209 °C | Cc1nc(N2CCN(Cc3ccccc3)C2=O)sc1C(=O)NCc1cc(F)cc(F)c1 [Example 9.3, 2-(3-benzyl-2-oxoimidazolidin-1-yl)-N-(3,5-difluorobenzyl)-4-methylthiazole-5-carboxamide] |
| 175 to 176 °C | Cc1nc(N2CCN(Cc3ccc(F)cc3)C2=O)sc1C(=O)NCc1ccncn1 [Example 32.14, 2-(3-(4-fluorobenzyl)-2-oxoimidazolidin-1-yl)-4-methyl-N-(pyrimidin-4-ylmethyl)thiazole-5-carboxamide] |
| 109 to 111 °C | Cc1nc(N2CCN(Cc3c(C)noc3-c3ccccc3)C2=O)sc1C(=O)NCc1cccnc1 [Example 32.4, 4-methyl-2-(3-((3-methyl-5-phenylisoxazol-4-yl)methyl)-2-oxoimidazolidin-1-yl)-N-(pyridin-3-ylmethyl)thiazole-5-carboxamide] |
| 107 to 108 °C | Cc1nc(N2CCN(Cc3ccc(C(F)(F)F)cc3)C2=O)sc1C(=O)NCc1cccnc1 [Example 9.12, 4-methyl-2-(2-oxo-3-(4-(trifluoromethyl)benzyl)imidazolidin-1-yl)-N-(pyridin-3-ylmethyl)thiazole-5-carboxamide] |
| 226 to 228 °C | Cc1nc(N2CCN(Cc3ccccc3)/C2=N\C#N)sc1C(=O)NCc1ccccc1 [Example 27, N-benzyl-2-(3-benzyl-2-(cyanoimino)imidazolidin-1-yl)-4-methylthiazole-5-carboxamide] |
| 172 to 173 °C | Cc1nc(N2CCN(Cc3ccc(OC(F)(F)F)cc3)C2=O)sc1C(=O)NCCc1cccnc1 [Example 9.32, 4-methyl-2-(2-oxo-3-(4-(trifluoromethoxy)benzyl)imidazolidin-1-yl)-N-(2-(pyridin-3-yl)ethyl)thiazole-5-carboxamide] |
| 116 to 117 °C | Cc1nc(-n2cnn(CC3CC3)c2=O)sc1C(=O)NCc1cccnc1 [Example 21.4, 2-(1-(cyclopropylmethyl)-5-oxo-1H-1,2,4-triazol-4(5H)-yl)-4-methyl-N-(pyridin-3-ylmethyl)thiazole-5-carboxamide] |

Reference: patent US8293768B2, “Organic compounds” (Novartis AG, priority 2006, dated 2012)
